# Measurements: patent US20230270752A1, “METHODS OF TREATING PHELAN MCDERMID SYNDROME USING FARNESYL DIBENZODIAZEPINONES” (AMO Pharma Ltd., priority 2017, published 2023)
# Entries after “also recorded” stand apart in the source; their conditions may differ.
# Legend:
# [1] = system: Shank3b KO transgenic model of PMS; experiment: Light dark box test (anxiety); type: in vivo, mice; details: single dose 30 mg/kg i.p., 4 hours before testing
# Experimental: (§1) Shank3b^-/- homozygous mice with deletions of exons 13-16, initially obtained from the Jackson Laboratory, and wild type (WT) littermates were generated on a C57BL/6J background and repeatedly backcrossed onto a C57BL/6J background for more than eight generations. The resulting Shank3 knockout (KO) mice were housed in groups of the same genotype in a temperature and humidity controlled room with a 12-h light-dark cycle (lights on 7 am to 7 pm). Room temperature and humidity were recorded continuously in the holding room. Testing was conducted during the light phase. Food and water were available ad libitum. Testing was conducted on Shank3 knockout mice and their wild type littermates, with N = 10 mice per treatment group, tested at two months of age during behavioral experiments. Mice were housed in commercial plastic cages and experiments were conducted in line with the requirements of the UK Animals (Scientific Procedures) Act, 1986. All experiments were conducted with experimenters blind to genotype and drug treatment. Animals were allowed a minimum acclimatization period of one week prior to performing any experiment. Only healthy animals were used. No prophylactic or therapeutic treatment was to be administered during the acclimatization period. […]
# [2] = system: Shank3b KO transgenic model of PMS; experiment: Excessive self-grooming test (self-injurious behavior); type: in vivo, mice; details: single dose 30 mg/kg i.p.
# Experimental: as §1, with “experiment.” for “experiment. Only healthy animals were used. No prophylactic or therapeutic treatment was to be administered during the acclimatization period.”
# Day 2: Excessive grooming leading to skin lesions. […] During this test, time spent grooming in all sequences: face-wiping, scratching/rubbing of head and ears, and full-body grooming was scored by an observer blind to genotype during the scoring.
# [3] = system: Shank3b KO transgenic model of PMS; experiment: Social recognition and response to social novelty test; type: in vivo, mice; details: single dose 30 mg/kg i.p.
# Experimental: as §1
# [4] = system: Shank3b KO transgenic model of PMS; experiment: Beam walking test (sensory motor function); type: in vivo, mice; details: single dose 30 mg/kg i.p.
# Experimental: as §1
# Day 4: Sensory motor function as assessed by beam walking tests. […]
# [5] = system: Shank3b KO transgenic model of PMS; experiment: Marble burying test (species typical behaviors); type: in vivo, mice; details: single dose 30 mg/kg i.p.
# Experimental: as §1
# Day 5: Activities of daily living / species typical behaviors as assessed by marble burying. […]
# [6] = system: Shank3b KO transgenic model of PMS; experiment: Audiogenic seizure threshold test; type: in vivo; details: Shank3b KO mice, single dose 30 mg/kg i.p., 124 db 60 s stimulus
# Experimental: as §1
# Seizure threshold as assessed by audiogenic seizures was assessed in a separate cohort with N = 10 per group. […]
# [7] = system: Shank3 knockout transgenic mouse model of Phelan McDermid Syndrome; experiment: Behavioral testing battery overall (five days after single dose); type: in vivo, mice
# Experimental: Shank3b^-/- homozygous mice with deletions of exons 13-16, initially obtained from the Jackson Laboratory, and wild type (WT) littermates were generated on a C57BL/6J background and repeatedly backcrossed onto a C57BL/6J background for more than eight generations. The resulting Shank3 knockout (KO) mice were housed in groups of the same genotype in a temperature and humidity controlled room with a 12-h light-dark cycle (lights on 7 am to 7 pm). Room temperature and humidity were recorded continuously in the holding room. Testing was conducted during the light phase. Food and water were available ad libitum. Testing was conducted on Shank3 knockout mice and their wild type littermates, with N = 10 mice per treatment group, tested at two months of age during behavioral experiments. Mice were housed in commercial plastic cages and experiments were conducted in line with the requirements of the UK Animals (Scientific Procedures) Act, 1986. All experiments were conducted with experimenters blind to genotype and drug treatment. Animals were allowed a minimum acclimatization period of one week prior to performing any experiment. Only healthy animals were used. No prophylactic or therapeutic treatment was to be administered during the acclimatization period.
# AMO-01 from AMO Pharma Ltd was administered to mice as follows: • A. AMO-01 at a single dose of 30 mg/kg intraperitoneally in a vehicle of ethanol, PEG 400 and polysorbate 80 and 5% dextrose • B. Vehicle dosed intraperitoneally as 15 ml/kg Groups of N = 10 mice were treated 4 hours before testing on the first day of testing. Five days of testing were undertaken following the single intraperitoneal dose administered on Day 1.
# The following groups were studied: • 1. Shank3b^-/- knockout mice + vehicle, N = 10 • 2. Shank3b^-/- knockout mice + AMO-01 30 mg/kg i.p., N = 10 • 3. Wild Type litter mates + vehicle, N = 10 • 4. Wild Type litter mates + AMO-01 30 mg/kg i.p., N = 10
# The following tests were administered.
# [8] = system: person with a genetically confirmed diagnosis of Phelan McDermid Syndrome; experiment: Clinical assessment of seizures and behavior in a Phelan McDermid Syndrome subject; type: in vivo; details: human PMS subject
# Experimental: A person with a genetically confirmed diagnosis of Phelan McDermid Syndrome was administered AMO-01.
# (§2) The study drug was prepared from a sterile bulk formulation containing 32.8 mg/mL (3.15% w/w) of the active drug substance dissolved in sterile 0.9% saline solution to produce an isotonic final dosing formulation. Each drug product vial contained 70 mg of AMO-01 drug substance in 2.134 mL of formulation (plus 2% overage). This corresponded to a total drug content of 71.4 mg of active drug substance per 2.176 mL of formula. AMO-01 was administered as a single dose via intravenous infusions over a 6 hour period, with the total dose administered as 120 mg/m^2.
# Seizure frequency and Visual Evoked Potentials (VEPs) were assessed alongside clinical measures. VEPs provide a noninvasive technique to evaluate the functional integrity of visual pathways in the brain from the retina to the visual cortex via the optic nerve/optic radiations. The VEP is recorded from the head’s surface, over the visual cortex, and is extracted from ongoing EEG through signal averaging. VEPs reflect the sum of excitatory and inhibitory postsynaptic potentials occurring on apical dendrites (Zemon et al., 1986) which modulate excitatory and inhibitory signals received by the pyramidal cells. The major positive and negative peaks and troughs in VEP waveforms reflect different cellular events. The contrast-reversing checkerboard stimulus used in this study produces a positive peak at approximately 60 ms (P0 or P60), reflecting activation of the primary visual cortex from the lateral geniculate nucleus. A negative peak at approximately 75 ms (N0 or N75) reflecting depolarization and glutamatergic postsynaptic activity spreading to the superficial layers of primary visual cortex, and a positive peak at approximately 100 ms (P1 or P100) reflecting superficial hyperpolarization and GABAergic activity (Zemon et al., 1980). VEPs have been used in clinical trials; for example, an antiepileptic drug (gabapentin; Conte et al., 2009) and an infant formula (O′Connor et al., 2009). Both received FDA approval based in part on positive findings from VEP studies. Data from ongoing clinical trials at Mount Sinai provide support for use of VEPs as a measure of treatment response. Assessments of clinical response were made before treatment, after six hours of treatment, and one week, two weeks and four weeks after treatment according to the schematic in FIG. 8.
# [9] = system: person with a genetically confirmed diagnosis of Phelan McDermid Syndrome; experiment: Visual Evoked Potentials in a Phelan McDermid Syndrome subject; type: in vivo; details: human PMS subject, 120 mg/m^2 i.v. over 6 hours
# Experimental: as §2
# Seizure frequency and Visual Evoked Potentials (VEPs) were assessed alongside clinical measures. VEPs provide a noninvasive technique to evaluate the functional integrity of visual pathways in the brain from the retina to the visual cortex via the optic nerve/optic radiations. The VEP is recorded from the head’s surface, over the visual cortex, and is extracted from ongoing EEG through signal averaging. VEPs reflect the sum of excitatory and inhibitory postsynaptic potentials occurring on apical dendrites (Zemon et al., 1986) which modulate excitatory and inhibitory signals received by the pyramidal cells. The major positive and negative peaks and troughs in VEP waveforms reflect different cellular events. […]
# [10] = system: induced pluripotent stem (IPS) cell lines derived from PMS patients; details: PMS patient-derived IPS cell lines; cited from earlier work
# Shank3 knockout mouse = details: Shank3 exon 4-9 deletion mouse; cited from earlier work
# Shank3 knockout mice = details: placebo controlled, 12 weeks of treatment; cited from earlier work
# [11] = Shank3 knockout mice, 30 mg/kg i.p. single dose
compound,measurement,setting,value
"CC(C)=CCC/C(C)=C/CC/C(C)=C/CN1C(=O)c2cccc(O)c2Nc2c(O)cc(O)cc21 [AMO-01, 10-farnesyl-4,6,8-trihydroxy-dibenzodiazepin-11-one]",Anxiety deficit in light dark box test,"[1]; Shank3b-/- KO mice, Day 1",significantly reduced the deficit shown in Shank3b^-/- mice (p <0.0001) although this reversal was not complete
same,Effect on light dark box anxiety behavior,[1]; Wild Type mice,no significant effect
same,Excessive self-grooming deficit,"[2]; Shank3b-/- KO mice, Day 2",significantly reduced the deficit shown in Shank3b^-/- mice (p <0.0001). This reversal was complete
same,Effect on self-grooming,[2]; Wild Type mice,no significant effect
same,Response to social novelty (time in interaction with familiar or novel mouse),"[3]; Shank3b KO mice, Day 3, 30 mg/kg",rescue of response to social novelty; also recorded: normalizes the differential response to social novelty
same,Response to social novelty (time in interaction with familiar or novel mouse),[3]; Wild Type mice,not affected by treatment
same,Beam walking deficit,"[4]; Shank3b-/- KO mice, Day 4",significantly reduced the deficit shown in Shank3b^-/- mice (p <0.0001). This reversal was complete
same,Effect on beam walking behavior,[4]; Wild Type mice,no significant effect
same,Marble burying deficit,"[5]; Shank3b-/- KO mice, Day 5",significantly reduced the deficit shown in Shank3b^-/- KO mice (p <0.0001). This reversal was complete
same,Effect on marble burying behavior,[5]; Wild Type mice,no significant effect
same,Audiogenic seizure threshold,[6],rescue of lowered audiogenic seizure threshold
same,"Deficits across anxiety, grooming, sociability, sensori-motor and species typical behaviour domains",[7]; [11],reversed deficits in all of these domains
same,Duration of rescue of the phenotype after a single dose,[7]; [11],persisted for at least five days
same,"Effect across anxiety, grooming, sociability, sensori-motor function, species typical behaviours, cognition","[7]; Wild Type mice, 30 mg/kg i.p.",without effect
same,Recurrence of seizure events after infusion,[8]; 120 mg/m^2 i.v. over 6 hours,Approximately three weeks after the study drug infusion
same,"Social, behavioral and motor changes during seizure-free period",[8]; 120 mg/m^2 i.v. over 6 hours,"became more social, more engaged (e.g. better eye contact), more cooperative, less restless, and their motor skills also improved"
same,Seizure occurrence after infusion,"[8]; 120 mg/m^2 i.v. over 6 hours, baseline 3 to 4 seizures a week",seizures stopped altogether for the next two weeks
same,Impending seizure episode at time of infusion,[8]; single i.v. infusion 120 mg/m^2 over 6 hours,appeared to completely abort the impending seizure episode
same,Visual Evoked Potentials before vs six hours after infusion,[9],ameliorated by treatment
IGF-1: insulin-like growth factor 1 (IGF-1),Impaired post-synaptic AMPA and NMDA receptor responses / excitatory synapse deficits,[10],rescued
same,Phenotype / deficits of Shank3 knockout mouse,Shank3 knockout mouse,deficits in this model reversed; also recorded: rescue of the phenotype
same,"Social, repetitive and aberrant behaviors",Shank3 knockout mice,"improvements in social, repetitive and aberrant behaviors"
